#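 Step 1: Grow cells in 96-well plates. Step 2: Expose to compound for 48 hours at 5 concentrations. Step 3: Interpolate endpoints linearly; if unreached, use highest concentration. At the TGI there is no net growth.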
# What was measured:
# Test in all cases: inhibition of tumour cell growth, NCI panel, 48 h
# RPMI-8226 leukemia = tested on: RPMI-8226 leukemia
# LOX IMVI melanoma = tested on: LOX IMVI melanoma
# SK-OV-3 ovarian = tested on: SK-OV-3 ovarian
# HCT-116 colon = tested on: HCT-116 colon
# SF-268 CNS = tested on: SF-268 CNS
# UACC-257 melanoma = tested on: UACC-257 melanoma
# K-562 leukemia = tested on: K-562 leukemia
# HCT-15 colon = tested on: HCT-15 colon
# NCI-H522 lung = tested on: NCI-H522 lung
# SNB-19 CNS = tested on: SNB-19 CNS
# MOLT-4 leukemia = tested on: MOLT-4 leukemia
# MDA-MB-435 = tested on: MDA-MB-435
# HOP-92 NSCLC = tested on: HOP-92 NSCLC
# MCF7 breast = tested on: MCF7 breast
# IGROV1 ovarian = tested on: IGROV1 ovarian
# KM12 colon = tested on: KM12 colon
# ACHN renal = tested on: ACHN renal
# SR leukemia = tested on: SR leukemia
# NCI-H460 lung = tested on: NCI-H460 lung
# OVCAR-4 ovarian = tested on: OVCAR-4 ovarian
# CCRF-CEM leukemia = tested on: CCRF-CEM leukemia
# HOP-62 NSCLC = tested on: HOP-62 NSCLC
# DU-145 prostate = tested on: DU-145 prostate
# NCI/ADR-RES ovarian = tested on: NCI/ADR-RES ovarian
# HCC-2998 colon = tested on: HCC-2998 colon
# T-47D breast = tested on: T-47D breast
# 786-0 renal = tested on: 786-0 renal
# PC-3 prostate = tested on: PC-3 prostate
# U251 CNS = tested on: U251 CNS
# SNB-75 CNS = tested on: SNB-75 CNS
# OVCAR-3 ovarian = tested on: OVCAR-3 ovarian
# RXF 393 renal = tested on: RXF 393 renal
# M14 melanoma = tested on: M14 melanoma
# A498 renal = tested on: A498 renal
# TK-10 renal = tested on: TK-10 renal
# CAKI-1 renal = tested on: CAKI-1 renal
# SF-295 CNS = tested on: SF-295 CNS
# NCI-H226 lung = tested on: NCI-H226 lung
# SK-MEL-2 melanoma = tested on: SK-MEL-2 melanoma
# HT29 colon = tested on: HT29 colon
# BT-549 breast = tested on: BT-549 breast
# UO-31 renal = tested on: UO-31 renal
# OVCAR-8 ovarian = tested on: OVCAR-8 ovarian
# SK-MEL-5 melanoma = tested on: SK-MEL-5 melanoma
# HS 578T breast = tested on: HS 578T breast
# MALME-3M melanoma = tested on: MALME-3M melanoma
# SF-539 CNS = tested on: SF-539 CNS
# SW-620 colon = tested on: SW-620 colon
# NCI-H23 lung = tested on: NCI-H23 lung
# UACC-62 melanoma = tested on: UACC-62 melanoma
# COLO 205 colon = tested on: COLO 205 colon
# SN12C renal = tested on: SN12C renal
# MDA-MB-231 breast = tested on: MDA-MB-231 breast
# MDA-N = tested on: MDA-N
# EKVX NSCLC = tested on: EKVX NSCLC
# A549 NSCLC = tested on: A549 NSCLC
# HL-60(TB) leukemia = tested on: HL-60(TB) leukemia
# OVCAR-5 ovarian = tested on: OVCAR-5 ovarian
# SK-MEL-28 melanoma = tested on: SK-MEL-28 melanoma
compound,measurement,setting,value
NC(CSS(=O)(=O)c1ccccc1)C(=O)O (configuration not stated),TGI,RPMI-8226 leukemia,> 10 µM
same,TGI,LOX IMVI melanoma,> 10 µM
same,TGI,SK-OV-3 ovarian,> 10 µM
same,TGI,HCT-116 colon,> 10 µM
same,TGI,SF-268 CNS,> 10 µM
same,TGI,UACC-257 melanoma,> 10 µM
same,TGI,K-562 leukemia,> 10 µM
same,TGI,HCT-15 colon,> 10 µM
same,TGI,NCI-H522 lung,> 10 µM
same,TGI,SNB-19 CNS,> 10 µM
same,TGI,MOLT-4 leukemia,> 10 µM
same,TGI,MDA-MB-435,> 10 µM
same,TGI,HOP-92 NSCLC,> 10 µM
same,TGI,MCF7 breast,> 10 µM
same,TGI,IGROV1 ovarian,> 10 µM
same,TGI,KM12 colon,> 10 µM
same,TGI,ACHN renal,> 10 µM
same,TGI,SR leukemia,> 10 µM
same,TGI,NCI-H460 lung,> 10 µM
same,TGI,OVCAR-4 ovarian,> 10 µM
same,TGI,CCRF-CEM leukemia,> 10 µM
same,TGI,HOP-62 NSCLC,> 10 µM
same,TGI,DU-145 prostate,> 10 µM
same,TGI,NCI/ADR-RES ovarian,> 10 µM
same,TGI,HCC-2998 colon,> 10 µM
same,TGI,T-47D breast,> 10 µM
same,TGI,786-0 renal,> 10 µM
same,TGI,PC-3 prostate,> 10 µM
same,TGI,U251 CNS,> 10 µM
same,TGI,SNB-75 CNS,> 10 µM
same,TGI,OVCAR-3 ovarian,> 10 µM
same,TGI,RXF 393 renal,> 10 µM
same,TGI,M14 melanoma,> 10 µM
same,TGI,A498 renal,> 10 µM
same,TGI,TK-10 renal,> 10 µM
same,TGI,CAKI-1 renal,> 10 µM
same,TGI,SF-295 CNS,> 10 µM
same,TGI,NCI-H226 lung,> 10 µM
same,TGI,SK-MEL-2 melanoma,> 10 µM
same,TGI,HT29 colon,> 10 µM
same,TGI,BT-549 breast,> 10 µM
same,TGI,UO-31 renal,> 10 µM
same,TGI,OVCAR-8 ovarian,> 10 µM
same,TGI,SK-MEL-5 melanoma,> 10 µM
same,TGI,HS 578T breast,> 10 µM
same,TGI,MALME-3M melanoma,> 10 µM
same,TGI,SF-539 CNS,> 10 µM
same,TGI,SW-620 colon,> 10 µM
same,TGI,NCI-H23 lung,> 10 µM
same,TGI,UACC-62 melanoma,> 10 µM
same,TGI,COLO 205 colon,> 10 µM
same,TGI,SN12C renal,> 10 µM
same,TGI,MDA-MB-231 breast,> 10 µM
same,TGI,MDA-N,> 10 µM
same,TGI,EKVX NSCLC,> 10 µM
same,TGI,A549 NSCLC,> 10 µM
same,TGI,HL-60(TB) leukemia,> 10 µM
same,TGI,OVCAR-5 ovarian,> 10 µM
same,TGI,SK-MEL-28 melanoma,> 10 µM
Cn1c(=O)cc(NNc2ccccc2)[nH]c1=O,TGI,RPMI-8226 leukemia,48.1 µM
same,TGI,LOX IMVI melanoma,28.3 µM
same,TGI,SK-OV-3 ovarian,> 100 µM
same,TGI,HCT-116 colon,31.6 µM
same,TGI,SF-268 CNS,> 100 µM
same,TGI,UACC-257 melanoma,> 100 µM
same,TGI,K-562 leukemia,> 100 µM
same,TGI,HCT-15 colon,30.1 µM
same,TGI,NCI-H522 lung,28.9 µM
same,TGI,SNB-19 CNS,> 100 µM
same,TGI,MOLT-4 leukemia,> 100 µM
same,TGI,MDA-MB-435,75 µM
same,TGI,HOP-92 NSCLC,44.7 µM
same,TGI,MCF7 breast,12.8 µM
same,TGI,IGROV1 ovarian,85.7 µM
same,TGI,KM12 colon,49.9 µM
same,TGI,ACHN renal,> 100 µM
same,TGI,SR leukemia,57.8 µM
same,TGI,NCI-H460 lung,> 100 µM
same,TGI,OVCAR-4 ovarian,> 100 µM
same,TGI,CCRF-CEM leukemia,90.4 µM
same,TGI,HOP-62 NSCLC,> 100 µM
same,TGI,DU-145 prostate,> 100 µM
same,TGI,NCI/ADR-RES ovarian,> 100 µM
same,TGI,HCC-2998 colon,> 100 µM
same,TGI,T-47D breast,38.9 µM
same,TGI,786-0 renal,30 µM
same,TGI,PC-3 prostate,> 100 µM
same,TGI,U251 CNS,31.7 µM
same,TGI,SNB-75 CNS,> 100 µM
same,TGI,OVCAR-3 ovarian,30.4 µM
same,TGI,RXF 393 renal,33.6 µM
same,TGI,M14 melanoma,89.9 µM
same,TGI,A498 renal,> 100 µM
same,TGI,TK-10 renal,65.9 µM
same,TGI,CAKI-1 renal,29.2 µM
same,TGI,SF-295 CNS,> 100 µM
same,TGI,NCI-H226 lung,> 100 µM
same,TGI,SK-MEL-2 melanoma,> 100 µM
same,TGI,HT29 colon,29.1 µM
same,TGI,BT-549 breast,> 100 µM
same,TGI,UO-31 renal,> 100 µM
same,TGI,OVCAR-8 ovarian,42.1 µM
same,TGI,SK-MEL-5 melanoma,> 100 µM
same,TGI,HS 578T breast,> 100 µM
same,TGI,MALME-3M melanoma,75.9 µM
same,TGI,SF-539 CNS,> 100 µM
same,TGI,SW-620 colon,31.3 µM
same,TGI,NCI-H23 lung,> 100 µM
same,TGI,UACC-62 melanoma,> 100 µM
same,TGI,COLO 205 colon,> 100 µM
same,TGI,SN12C renal,> 100 µM
same,TGI,MDA-MB-231 breast,33.5 µM
same,TGI,MDA-N,> 100 µM
same,TGI,EKVX NSCLC,> 100 µM
same,TGI,A549 NSCLC,> 100 µM
same,TGI,HL-60(TB) leukemia,56.8 µM
same,TGI,OVCAR-5 ovarian,> 100 µM
same,TGI,SK-MEL-28 melanoma,60.4 µM
c1cc(-c2ccsc2-c2ccsc2)cs1,TGI,RPMI-8226 leukemia,> 100 µM
same,TGI,LOX IMVI melanoma,> 100 µM
same,TGI,SK-OV-3 ovarian,> 100 µM
same,TGI,HCT-116 colon,> 100 µM
same,TGI,SF-268 CNS,> 100 µM
same,TGI,UACC-257 melanoma,> 100 µM
same,TGI,K-562 leukemia,> 100 µM
same,TGI,HCT-15 colon,> 100 µM
same,TGI,NCI-H522 lung,> 100 µM
same,TGI,SNB-19 CNS,> 100 µM
same,TGI,MOLT-4 leukemia,> 89 µM
same,TGI,MDA-MB-435,> 82.9 µM
same,TGI,HOP-92 NSCLC,> 100 µM
same,TGI,MCF7 breast,> 100 µM
same,TGI,IGROV1 ovarian,> 100 µM
same,TGI,KM12 colon,99.7 µM
same,TGI,ACHN renal,> 100 µM
same,TGI,SR leukemia,> 74.9 µM
same,TGI,NCI-H460 lung,> 100 µM
same,TGI,OVCAR-4 ovarian,> 100 µM
same,TGI,CCRF-CEM leukemia,> 100 µM
same,TGI,HOP-62 NSCLC,> 100 µM
same,TGI,DU-145 prostate,> 100 µM
same,TGI,NCI/ADR-RES ovarian,> 100 µM
same,TGI,HCC-2998 colon,> 100 µM
same,TGI,T-47D breast,> 100 µM
same,TGI,786-0 renal,> 100 µM
same,TGI,PC-3 prostate,> 100 µM
same,TGI,U251 CNS,> 100 µM
same,TGI,SNB-75 CNS,> 100 µM
same,TGI,OVCAR-3 ovarian,> 100 µM
same,TGI,RXF 393 renal,> 85.5 µM
same,TGI,M14 melanoma,> 100 µM
same,TGI,A498 renal,> 100 µM
same,TGI,TK-10 renal,> 100 µM
same,TGI,CAKI-1 renal,> 100 µM
same,TGI,SF-295 CNS,> 100 µM
same,TGI,NCI-H226 lung,> 71.7 µM
same,TGI,SK-MEL-2 melanoma,> 59.1 µM
same,TGI,HT29 colon,> 100 µM
same,TGI,BT-549 breast,> 100 µM
same,TGI,UO-31 renal,> 100 µM
same,TGI,OVCAR-8 ovarian,> 100 µM
same,TGI,SK-MEL-5 melanoma,> 100 µM
same,TGI,HS 578T breast,> 100 µM
same,TGI,MALME-3M melanoma,> 100 µM
same,TGI,SF-539 CNS,> 100 µM
same,TGI,SW-620 colon,> 100 µM
same,TGI,NCI-H23 lung,> 100 µM
same,TGI,UACC-62 melanoma,> 100 µM
same,TGI,COLO 205 colon,> 100 µM
same,TGI,SN12C renal,> 100 µM
same,TGI,MDA-MB-231 breast,> 100 µM
same,TGI,MDA-N,> 72.5 µM
same,TGI,EKVX NSCLC,> 100 µM
same,TGI,A549 NSCLC,> 100 µM
same,TGI,HL-60(TB) leukemia,> 100 µM
same,TGI,OVCAR-5 ovarian,> 100 µM
same,TGI,SK-MEL-28 melanoma,> 100 µM

# From PubChem BioAssay (NCI)
